Measurements reported in patent publication US5827895A, “Hexahydrolupulones useful as anticancer agents” (Regents of the University of Minnesota, priority 1996, dated 1998).
In brackets after ≈: the same amount, converted by molar mass. Read-outs that look alike come from different tables or passages of the source.

System: VRE (Vancomycin Resistant Enterococcus faeclum)
Experiment: microbe, parasite or virus in culture
Method: HHC was also tested for effectiveness against various bacterial isolates obtained from human subjects.

CC(C)CCC1=C(O)C(C(=O)C(C)C)=C(O)C(CCC(C)C)(CCC(C)C)C1=O [HHC, hexahydrocolupulone] gave an MIC (read-out: [HHC] (MIC), patient A, VRE) of 1.01 mg/L (≈ 2.5 µM), an MIC (read-out: [HHC] (MIC), patient B, VRE) of 4.06 mg/L (≈ 9.99 µM) and an MIC (read-out: [HHC] (MIC), patient C, VRE) of 2.03 mg/L (≈ 4.99 µM).
